This passage reports inhibition and IC50 results from patent US9029389B2 (Institut Pasteur Korea, priority 2011, dated 2015).

The structures appear in SMILES notation.

For the first assay, the target named is T1, Human 5-lipoxygenase (Homo sapiens, UniProt P09917).
T1 construct: purchased Cayman 60402; host or cells: insect cells
T1 sequence (P09917 1-674): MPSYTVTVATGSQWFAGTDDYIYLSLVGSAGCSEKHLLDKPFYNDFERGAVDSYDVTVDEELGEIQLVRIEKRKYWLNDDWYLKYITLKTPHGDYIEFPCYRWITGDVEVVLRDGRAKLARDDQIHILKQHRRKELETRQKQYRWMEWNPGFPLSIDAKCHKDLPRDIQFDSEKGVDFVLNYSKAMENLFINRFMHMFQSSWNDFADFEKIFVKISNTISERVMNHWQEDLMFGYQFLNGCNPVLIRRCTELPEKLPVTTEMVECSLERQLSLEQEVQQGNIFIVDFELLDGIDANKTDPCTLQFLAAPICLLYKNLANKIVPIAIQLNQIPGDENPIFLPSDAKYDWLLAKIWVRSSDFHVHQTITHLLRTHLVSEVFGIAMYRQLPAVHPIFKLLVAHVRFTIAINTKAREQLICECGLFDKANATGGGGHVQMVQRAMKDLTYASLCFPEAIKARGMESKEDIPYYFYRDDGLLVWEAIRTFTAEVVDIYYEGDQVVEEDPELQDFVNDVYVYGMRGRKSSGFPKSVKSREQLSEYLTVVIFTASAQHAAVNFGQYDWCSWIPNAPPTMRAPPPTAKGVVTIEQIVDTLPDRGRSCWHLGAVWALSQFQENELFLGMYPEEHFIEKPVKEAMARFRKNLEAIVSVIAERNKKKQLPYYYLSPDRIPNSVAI
Nature of the assay: Activity of compounds against 5-LO enzyme (LTB4 measurement and/or fluorescence method). The assay is classed as biochemical. The conditions noted are these: 5-LO, single concentration of 10 uM in duplicate. The method, then:
The activity of compounds against 5-LO were determined by measuring LTB4 (leukotriene B4) levels and/or by a fluorescence method. Both approaches are outlined in more detail below;
Human 5-lipoxygenase (Cayman, Cat#60402) produced in insect cells was pre-incubated with compound for 15 min at RT in incubation buffer (50 mM Tris-Cl, pH 7.4, 2 mM CaCl2, 0.1 mM ATP, 1% DMSO). The enzymatic reaction was started by adding arachidonic acid to a final concentration of 3 uM. After 5 min of incubation at 37° C., the reaction was stopped by heatinactivation at 80° C. for 5 min. LTB4 levels were quantified by using LTB4 EIA kit (Cayman, Cat#520111) as instructed and/or LTB4 levelswere measured with LC/MS/MS using Quattro Premier™ XE tandem quadrupole mass spectrometer equipped with Acquity UPLC system (Waters, Milford, Mass.). The method was slightly modified as reported previously (Zweifel et al., 2008, Willey et al., 2008, Chappell et al, 2011). Briefly, chromatographic separation was carried out with Acquity UPLC BEH Shield RP18 Column (2.1 mm×50 mm, 1.7 μm particle size, Waters, Milford, Mass.). Sample injection volume was 10 μl, the column temperature was 35° C., the mobile phase A consisted of water with 0.1% formic acid and the mobile phase B consisted of acetonitrile with 0.1% formic acid. Flow rate was 0.4 mL/min and the gradient condition was as follows.
Relative quantification of LTB4 and LTB4-d4 (Internal Standard) was done using multi reaction monitoring (MRM) of the transitions of m/z 335→195 for LTB4, 339→197 for LTB4-d4 in electrospray ionization (ESI) negative mode. Desolvation temperature was 400° C., source temperature was 130° C. Capillary voltage, cone voltage, and collision voltage were 3.5 kV, 30V, and 20 eV, respectively. Nitrogen was used for desolvation (750 L/h) and cone (50 L/h) gas. Argon was used for collision gas (0.22 ml/min). The dwell time was 10 ms.
Besides the two methods quantifying LTB4 level, a fluorescence assay measuring 5-HpETE was introduced for high-throughput screening in a 384 well microplate format (Pufahl et al., 2007). For nonspecific ester cleavage of the acetate groups in H2DCFDA, the insect cell lysate expressing human 5-LO (Cayman Cat#60402) was incubated with H2DCFDA (50 mM Tris-Cl, pH 7.5, 2 mM CaCl2, 20 uM H2DCFDA, 500 mU 5-LO per reaction) for 5 minutes. Compound and enzyme mixture were pre-incubated for 5 minutes, and the enzymatic reaction was initiated by addition of ATP and arachidonic acid to a final concentration of 100 uM and 3 uM, respectively. After 5 minutes of incubation, the fluorescence was measured using Spectramax M5 (Molecular Device, Ex/Em=485 nm/530 nm). All steps were carried out at room temperature.
A total of 378 compounds were initially tested at a single concentration of 10 uM in duplicate with the results summarized in Table 1. From these 378 compounds, 53 compounds plus an additional 25 were selected for confirmation of activity by 6 or 11 point dose response in duplicate with the corresponding IC50 values outlined in Table 2.
By inhibition is commonly meant how much of the control response was suppressed. A lower inhibition goes with a weak effect. For the compound `CCc1nc2ccc(Cl)cn2c1C(=O)NCc1ccc(Nc2ccc(OC(F)(F)F)cc2)cc1` [compound 174, 6-Chloro-2-ethyl-N-(4-(4-(trifluoromethoxy)phenylamino)benzyl)imidazo[1,2-a]pyridine-3-carboxamide], the inhibition at 10 µM is greater than 69%.
Still for that read-out and setting: then `CCc1nc2ccc(Cl)cn2c1C(=O)NCc1ccc2c(ccn2C)c1` [compound 67], with less than 40%; and `Cc1ccc2nc(C)c(C(=O)NCc3ccccc3)n2c1` [compound 33, N-Benzyl-2,6-dimethylimidazo[1,2-a]pyridine-3-carboxamide], with less than 40%; and `CCc1nc2ccc(Cl)cn2c1C(=O)NCc1ccc(-c2ccc(C#N)cc2)cc1` [compound 97, 6-Chloro-N-((4′-cyanobiphenyl-4-yl)methyl)-2-ethylimidazo[1,2-a]pyridine-3-carboxamide], with less than 40%.
Same read-out and setting: with `CCc1nc2ccc(C)cn2c1C(=O)NCc1ccc(OC(F)(F)F)cc1` [compound 59, 2-Ethyl-6-methyl-N-(4-(trifluoromethoxy)benzyl)imidazo[1,2-a]pyridine-3-carboxamide] the figure was 40 to 69%; with `CCc1nc2ccc(Cl)cn2c1C(=O)NCc1ccc(Oc2ccc(OC(F)(F)F)cc2)cc1` [compound 131, 6-Chloro-2-ethyl-N-(4-(4-(trifluoromethoxy)phenoxy)benzyl)imidazo[1,2-a]pyridine-3-carboxamide], 40 to 69%.
The same measure, in the same setting: with `CCc1nc2cc(Cl)ccn2c1C(=O)NCc1ccc(-c2ccc(C#N)cc2C)cc1` [compound 109, 7-Chloro-N-((4′-cyano-2′-methylbiphenyl-4-yl)methyl)-2-ethylimidazo[1,2-a]pyridine-3-carboxamide] the figure was 40 to 69%; with `CCc1nc2cc(Cl)ccn2c1C(=O)NCc1ccc(Oc2ccc(OC(F)(F)F)cc2)nc1` [compound 190, 7-Chloro-2-ethyl-N-((6-(4-(trifluoromethoxy)phenoxy)pyridin-3-yl)methy)imidazo[1,2-a]pyridine-3-carboxamide], greater than 69%; with `COc1ccc(CNC(=O)c2c(C)nc3ccccn23)cc1` [compound 7, N-(4-Methoxybenzyl)-2-methylimidazo[1,2-a]pyridine-3-carboxamide], less than 40%.
In turn, `CCc1nc2ccc(Cl)cn2c1CNCc1ccc(N2CCC3(CC2)OCCO3)cc1` [compound 346, N-(4-(1,4-dioxa-8-azaspiro[4.5]decan-8-yl)benzyl)-1-(6-chloro-2-ethylimidazo[1,2-a]pyridin-3-yl)methanamine] had an inhibition at 10 µM of less than 40%.
Compound `Cc1nc2c(Cl)cccn2c1C(=O)NCc1ccccc1` [compound 15, N-Benzyl-8-chloro-2-methylimidazo[1,2-a]pyridine-3-carboxamide] displayed an inhibition at 10 µM of less than 40%.
On the same count and under the same terms, then `CCc1nc2ccc(Cl)cn2c1C(=O)NCc1ccc(N2CCC(OCc3ccccc3)CC2)cc1` [compound 317, N-(4-(4-(benzyloxy)piperidin-1-yl)benzyl)-6-chloro-2-ethylimidazo[1,2-a]pyridine-3-carboxamide], with less than 40%.
On the same count and under the same terms, then `CCc1nc2cc(Cl)ccn2c1C(=O)NCc1ccc(-c2cccc(C#N)c2)cc1` [compound 101, 7-Chloro-N-((3′-cyanobiphenyl-4-yl)methyl)-2-ethylimidazo[1,2-a]pyridine-3-carboxamide], with 40 to 69%; and `CCc1nc2cc(Cl)ccn2c1NC(=O)Cc1ccc(-c2ccccc2)cc1` [compound 116, 2-(Biphenyl-4-yl)-N-(7-chloro-2-ethylimidazo[1,2-a]pyridin-3-yl)acetamide], with 40 to 69%.
In turn, `COC(=O)[C@H](Cc1ccccc1)NC(=O)c1c(C)nc2ccccn12` [compound 23, (S)-Methyl 2-(2-methylimidazo[1,2-a]pyridine-3-carboxamido)-3-phenylpropanoate] returned an inhibition at 10 µM of less than 40%.
The same measure, in the same setting: with `CCc1nc2ccc(Cl)cn2c1C(=O)NCc1ccc2[nH]c(-c3ccc(OC(F)(F)F)cc3)nc2c1` [compound 185, 6-Chloro-2-ethyl-N-((2-(4-(trifluoromethoxy)phenyl)-1H-benzo[d]imidazol-5-yl)methyl)imidazo[1,2-a]pyridine-3-carboxamide] the figure was 40 to 69%; with `CCc1nc2cc(Cl)c(Cl)cn2c1C(=O)NCc1ccc(N2CCN(c3ccc(F)cc3)CC2)cc1` [compound 180, 6,7-Dichloro-2-ethyl-N-(4-(4-(4-fluorophenyl)piperazin-1-yl)benzyl)imidazo[1,2-a]pyridine-3-carboxamide], less than 40%.
Still for that read-out and setting: with `CCc1nc2cc(Cl)ccn2c1C(=O)NCc1ccc(-n2cccc2)cc1` [compound 117, N-(4-(1H-Pyrrol-1-yl)benzyl)-7-chloro-2-ethylimidazo[1,2-a]pyridine-3-carboxamide] the figure was less than 40%.
The same measure, in the same setting: with `CCc1nc2ccc(Cl)cn2c1C(=O)NCc1ccc(N2CCC(Oc3ccc(C(F)(F)F)cc3)CC2)cc1` [compound 168, 6-Chloro-2-ethyl-N-(4-(4-(4-(trifluoromethyl)phenoxy)piperidin-1-yl)benzyl)imidazo[1,2-a]pyridine-3-carboxamide] the figure was 40 to 69%; with `CCc1nc2cc(Cl)ccn2c1C(=O)NCc1ccc(Cl)cc1` [compound 84, 7-Chloro-N-(4-chlorobenzyl)-2-ethylimidazo[1,2-a]pyridine-3-carboxamide], 40 to 69%; with `CCc1nc2ccc(Cl)cn2c1C(=O)NCc1ccc(-c2ccc(C)cc2)cc1` [compound 77, 6-Chloro-2-ethyl-N-((4′-methylbiphenyl-4-yl)methyl)imidazo[1,2-a]pyridine-3-carboxamide], less than 40%.
On to `CCc1nc2cc(Cl)ccn2c1C(=O)NCc1ccc(N2CCC(C(=O)N(C)C)CC2)cc1` [compound 294, 7-Chloro-N-(4-(4-(dimethylcarbamoyl)piperidin-1-yl)benzyl)-2-ethylimidazo[1,2-a]pyridine-3-carboxamide], for which the inhibition at 10 µM is less than 40%.

Still in this assay, the particulars now being: 6 or 11 point dose response in duplicate.
As a reminder, the IC50 is the point on the concentration scale where inhibition reaches its midpoint. A higher IC50 goes with weaker potency in that assay. The compound `CCc1nc2ccc(Cl)cn2c1C(=O)NCc1ccc(Nc2ccc(OC(F)(F)F)cc2)cc1` [compound 174, 6-Chloro-2-ethyl-N-(4-(4-(trifluoromethoxy)phenylamino)benzyl)imidazo[1,2-a]pyridine-3-carboxamide] returned an IC50 of 1 to 20 µM.
`CCc1nc2ccc(Cl)cn2c1C(=O)N1CC[C@H](OCc2ccc(OC(F)(F)F)cc2)C1` [compound 390, (S)-(6-chloro-2-ethylimidazo[1,2-a]pyridin-3-yl)(3-(4-(trifluoromethoxy)benzyloxy)-pyrrolidin-1-yl)methanone] yielded an IC50 of 1 to 20 µM.
`CCc1nc2cc(Cl)ccn2c1C(=O)NCc1ccc(Oc2ccc(OC(F)(F)F)cc2)nc1` [compound 190, 7-Chloro-2-ethyl-N-((6-(4-(trifluoromethoxy)phenoxy)pyridin-3-yl)methy)imidazo[1,2-a]pyridine-3-carboxamide] registered an IC50 of 1 to 20 µM.
Same read-out and setting: then `CCc1nc2cccnn2c1C(=O)N1CCC(OCc2ccc(OC(F)(F)F)cc2)CC1` [compound 387, (2-Ethylimidazo[1,2-b]pyridazin-3-yl)(4-((4-(trifluoromethoxy)benzyl)oxy)piperidin-1-yl)methanone], with greater than 20 µM; and `CCc1nc2ccc(Cl)cn2c1C(=O)N1CCC(OCc2ccccc2)CC1` [compound 330, (4-(benzyloxy)piperidin-1-yl)(6-chloro-2-ethylimidazo[1,2-a]pyridin-3-yl)methanone], with greater than 20 µM.
